The subject of test [1] is suture-induced neovascularization in the rabbit cornea. Nature of the test: Rabbit cornea suture model of neovascularization. Type of test: in vivo. As to the method:
Topical compositions comprising 0.2% or 0.05% nintedanib in 10% 2-hydroxypropyl beta cyclodextrin in phosphate buffer solution, pH 7.4 were prepared. Thirty female Zealand White rabbits were used to perform the study. Briefly, five sutures were placed in the upper cornea of the right eye of each animal on Day 1 to induce neovascularization. The animals were treated in both eyes with either drug, vehicle or saline as described in Table 1. [table] During the study, the animals were closely observed for various ocular indications as well as general physical conditions including body weight. Ocular images were taken on days 7, 10, 12, 14, 21, 28 for analysis of hyperemia. NIH ImageJ® software was used to analyze the ocular images. Each image was opened in ImageJ®, the scale was calibrated using the ruler in the photograph and the neovascularized area on the cornea near the suture was selected by the selection tool. The area in mm^2 was calculated by measurement tool in the software, recorded in excel and the image was captured and saved. […] The results were plotted as histograms of average with standard deviation for easy comparison.

Test [2] concerns corneal graft rejection (C57BL/6 cornea transplanted onto BALB/c mice). Nature of the test: Mouse corneal graft rejection model. The format is in vivo. The following applies: nintedanib 0.2% solution TID for 8 weeks vs vehicle solution. The source says: In this example, cornea of C57BL/6 mice would be transplanted onto BALB/c mice cornea as described (Sonoda et al. Invest Ophthalmol Vis Sci. 1995 February; 36(2):427-34; Invest Ophthalmol Vis Sci. 2000 March; 41(3):790-8; Yamagami et al. Invest Ophthalmol Vis Sci. 2001 May; 42(6): 1293-8). The suture would be removed on day 7 after transplant. The mice would be divided into two groups. Group 1 would be treated with the nintedanib 0.2% solution and group 2 with the vehicle solution. Treatment would start immediately after transplant, TID for 8 weeks. The corneal opacity and graft rejection will be assessed weekly for 8 weeks as described.

Molecules are shown by their SMILES. “Also recorded” adds a separate entry of the source.

As to `COC(=O)c1ccc2c(c1)NC(=O)/C2=C(\Nc1ccc(N(C)C(=O)CN2CCN(C)CC2)cc1)c1ccccc1` [nintedanib, Methyl (3Z)-3-{[(4-{methyl[(4-methylpiperazin-1-yl)acetyl]amino}phenyl)amino] (phenyl)methylidene}-2-oxo-2,3-dihydro-1H-indole-6-carboxylate], in test [1] (rabbit cornea suture model, topical ocular, TID vs BID), the “efficacy of TID dosing compared with BID dosing” value was “higher efficacy”. In test [1] (rabbit cornea suture model, topical ocular, higher dose 0.2% vs 0.05%), the “efficacy of 0.2% nintedanib compared with 0.05% nintedanib” value is “better efficacy”. In test [1] (rabbit, topical ocular 0.2% or 0.05% solution BID or TID days 8 to 15, vs vehicle, day 12 and day 14 after suture), the “effect on suture-induced corneal neovascularization (area of cornea neovascularization)” value was “reduced cornea neovascularization; also recorded: marked inhibitory effect; also recorded: strongly inhibited corneal neovascularization”. In addition, in test [2], the “survival of the graft (rejection rate)” value is listed as “significantly increased survival of the graft”.

(Values after patent US12491183B2, “Compositions and methods of using nintedanib for treating ocular diseases with abnormal neovascularization” (ADS Therapeutics LLC, priority 2016, dated 2025).)
